Data taken from PubChem BioAssay AID2060904 (Molecular Pharmacology Branch, DTP, NCI, 2025).

System: 349418-098-R-PDC complex spheroid viability
Test: Anticancer human tumor 349418-098-R-PDC patient-derived lung adenocarcinoma cell line growth inhibition [RAS]
Settings: for IC50: curve of first compound; for viability, T/C: stronger effect = lower value
Method in brief: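 Multi-cell-type spheroids: tumor cells plus HUVEC endothelial cells and mesenchymal stem cells. RAS-pathway inhibitors were combined with targeted agents, each dosed in half-log steps down from clinical Cmax, or from 10 microM when Cmax was unknown.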
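Note: spheroids exposed to compound for seven days before viability readout.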

SMILES: CCc1c2c(nc3ccc(O)cc13)-c1cc3c(c(=O)n1C2)COC(=O)[C@]3(O)CC + CCn1c(-c2cccnc2C(C)OC)c2c3cc(ccc31)N1CCOC(CC(NC(=O)C(C(C)C)N(C)C(=O)C3(F)CCN(C(=O)C#CC(C)(C)N(C)C)CC3)C(=O)N3CCCC(N3)C(=O)OCC(C)(C)C2)C1
- IC50 (second compound 0.000949 µM): 2.21 nM
- IC50 (second compound 0.003 µM): 2.57 nM
- IC50 (second compound 0.00949 µM): 2.86 nM
- IC50 (second compound 0.03 µM): 2.62 nM
- IC50 (second compound 0.0949 µM): 2.42 nM
- IC50 (second compound 0.3 µM): 1.43 nM
- viability, T/C (second compound 0.000949 µM, first compound 0.000949 µM): 77.2%
- viability, T/C (second compound 0.000949 µM, first compound 0.003 µM): 40.1%
- viability, T/C (second compound 0.000949 µM, first compound 0.00949 µM): 10.9%
- viability, T/C (second compound 0.000949 µM, first compound 0.03 µM): 4.7%
- viability, T/C (second compound 0.000949 µM, first compound 0.0949 µM): 2.54%
- viability, T/C (second compound 0.000949 µM, first compound 0.3 µM): 2.43%
- viability, T/C (second compound 0.003 µM, first compound 0.000949 µM): 99.5%
- viability, T/C (second compound 0.003 µM, first compound 0.003 µM): 42.5%
- viability, T/C (second compound 0.003 µM, first compound 0.00949 µM): 13.3%
- viability, T/C (second compound 0.003 µM, first compound 0.03 µM): 6.22%
- viability, T/C (second compound 0.003 µM, first compound 0.0949 µM): 2.99%
- viability, T/C (second compound 0.003 µM, first compound 0.3 µM): 2.08%
- viability, T/C (second compound 0.00949 µM, first compound 0.000949 µM): 98.7%
- viability, T/C (second compound 0.00949 µM, first compound 0.003 µM): 47.9%
- viability, T/C (second compound 0.00949 µM, first compound 0.00949 µM): 15.6%
- viability, T/C (second compound 0.00949 µM, first compound 0.03 µM): 5.26%
- viability, T/C (second compound 0.00949 µM, first compound 0.0949 µM): 2.91%
- viability, T/C (second compound 0.00949 µM, first compound 0.3 µM): 2.15%
- viability, T/C (second compound 0.03 µM, first compound 0.000949 µM): 86.4%
- viability, T/C (second compound 0.03 µM, first compound 0.003 µM): 45.1%
- viability, T/C (second compound 0.03 µM, first compound 0.00949 µM): 14.1%
- viability, T/C (second compound 0.03 µM, first compound 0.03 µM): 5.2%
- viability, T/C (second compound 0.03 µM, first compound 0.0949 µM): 2.57%
- viability, T/C (second compound 0.03 µM, first compound 0.3 µM): 2.19%
- viability, T/C (second compound 0.0949 µM, first compound 0.000949 µM): 94.7%
- viability, T/C (second compound 0.0949 µM, first compound 0.003 µM): 39.9%
- viability, T/C (second compound 0.0949 µM, first compound 0.00949 µM): 11.3%
- viability, T/C (second compound 0.0949 µM, first compound 0.03 µM): 5.33%
- viability, T/C (second compound 0.0949 µM, first compound 0.0949 µM): 2.49%
- viability, T/C (second compound 0.0949 µM, first compound 0.3 µM): 1.47%
- viability, T/C (second compound 0.3 µM, first compound 0.000949 µM): 65.3%
- viability, T/C (second compound 0.3 µM, first compound 0.003 µM): 22.4%
- viability, T/C (second compound 0.3 µM, first compound 0.00949 µM): 7.03%
- viability, T/C (second compound 0.3 µM, first compound 0.03 µM): 4.31%
- viability, T/C (second compound 0.3 µM, first compound 0.0949 µM): 2.68%
- viability, T/C (second compound 0.3 µM, first compound 0.3 µM): 1.47%

SMILES: CCC(CC)c1cc(NC2CCC(N)C2)n2nccc2n1 (centres undefined) + CCn1c(-c2cc(N3CCN(C)CC3)cnc2C(C)OC)c2c3cc(ccc31)-c1csc(n1)CC(NC(=O)C1CC1C)C(=O)N1CCCC(N1)C(=O)OCC(C)(C)C2
- IC50 (second compound 0.000949 µM): 825 nM
- IC50 (second compound 0.003 µM): 1050 nM
- IC50 (second compound 0.00949 µM): 1140 nM
- IC50 (second compound 0.03 µM): 842 nM
- IC50 (second compound 0.0949 µM): 985 nM
- IC50 (second compound 0.3 µM): 986 nM
- viability, T/C (second compound 0.000949 µM, first compound 0.0316 µM): 96.1%
- viability, T/C (second compound 0.000949 µM, first compound 0.1 µM): 91.7%
- viability, T/C (second compound 0.000949 µM, first compound 0.316 µM): 98.7%
- viability, T/C (second compound 0.000949 µM, first compound 1 µM): 40.8%
- viability, T/C (second compound 0.000949 µM, first compound 3.16 µM): 2.44%
- viability, T/C (second compound 0.000949 µM, first compound 10 µM): 2.65%
- viability, T/C (second compound 0.003 µM, first compound 0.0316 µM): 103%
- viability, T/C (second compound 0.003 µM, first compound 0.1 µM): 106%
- viability, T/C (second compound 0.003 µM, first compound 0.316 µM): 96.5%
- viability, T/C (second compound 0.003 µM, first compound 1 µM): 52.7%
- viability, T/C (second compound 0.003 µM, first compound 3.16 µM): 2.69%
- viability, T/C (second compound 0.003 µM, first compound 10 µM): 2.78%
- viability, T/C (second compound 0.00949 µM, first compound 0.0316 µM): 94.8%
- viability, T/C (second compound 0.00949 µM, first compound 0.1 µM): 94.3%
- viability, T/C (second compound 0.00949 µM, first compound 0.316 µM): 90%
- viability, T/C (second compound 0.00949 µM, first compound 1 µM): 56.3%
- viability, T/C (second compound 0.00949 µM, first compound 3.16 µM): 2.15%
- viability, T/C (second compound 0.00949 µM, first compound 10 µM): 2.27%
- viability, T/C (second compound 0.03 µM, first compound 0.0316 µM): 107%
- viability, T/C (second compound 0.03 µM, first compound 0.1 µM): 103%
- viability, T/C (second compound 0.03 µM, first compound 0.316 µM): 94.1%
- viability, T/C (second compound 0.03 µM, first compound 1 µM): 42.8%
- viability, T/C (second compound 0.03 µM, first compound 3.16 µM): 2.26%
- viability, T/C (second compound 0.03 µM, first compound 10 µM): 2.15%
- viability, T/C (second compound 0.0949 µM, first compound 0.0316 µM): 119%
- viability, T/C (second compound 0.0949 µM, first compound 0.1 µM): 103%
- viability, T/C (second compound 0.0949 µM, first compound 0.316 µM): 99.8%
- viability, T/C (second compound 0.0949 µM, first compound 1 µM): 50.7%
- viability, T/C (second compound 0.0949 µM, first compound 3.16 µM): 2.85%
- viability, T/C (second compound 0.0949 µM, first compound 10 µM): 2.9%
- viability, T/C (second compound 0.3 µM, first compound 0.0316 µM): 116%
- viability, T/C (second compound 0.3 µM, first compound 0.1 µM): 107%
- viability, T/C (second compound 0.3 µM, first compound 0.316 µM): 108%
- viability, T/C (second compound 0.3 µM, first compound 1 µM): 49.4%
- viability, T/C (second compound 0.3 µM, first compound 3.16 µM): 2.38%
- viability, T/C (second compound 0.3 µM, first compound 10 µM): 2.44%
